Assay: recombinant barcode read abundance after kanamycin selection (control-corrected) (log10(CPM+1)); higher = more efficient recombination; sequences stand for … in AGTGCAGAGAAAATCGGCCAGTTTTCTCTGCCTGCAGTCCGCATGCCGT…ATTTATGCAGCGGACTGCCTTTCTCCCAAAGTGATAAACCGGACAGTATCATGGACCGGTTTTCCCGGTAATCCGTATTTGCAAGGTTGGTTTCACT; site = the 11-nt target
Outline: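 A vector carrying a T7-inducible recombinase and the last 73 bp of the bridge RNA received, by Gibson cloning, oligos encoding a promoter, target, barcode and the first 104 bridge RNA bases under J23119. The pooled constructs entered E. coli together with a donor plasmid by electroporation. Selection used chloramphenicol/ampicillin/kanamycin with 0.1 mM IPTG, with chloramphenicol/ampicillin LB agar as the control, each in two replicates. Recombination efficiency is the averaged, control-corrected counts-per-million of barcodes at recombinant junctions, reported as log10(CPM+1).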

Row | Sequence | recombinant barcode read abundance (log10)
1 | GCGCGACACTGGGTTCTAACCTGTTGCTTAG [GCGCGACCTAA_LTGcore_AC_RTGcore_CT] (site GCGCGACCTAA) (LTG core: AC, RTG core: CT) | 0.131
2 | GCGCGACCGTGGGTTCTAACCTGTTGCTTAG [GCGCGACCTAA_LTGcore_CG_RTGcore_CT] (site GCGCGACCTAA) (LTG core: CG, RTG core: CT) | 0.217
3 | GCGCGACCGTGGGTTCTAACCTGTTGCTTCG [GCGCGACCTAA_LTGcore_CG_RTGcore_CG] (site GCGCGACCTAA) (LTG core: CG, RTG core: CG) | 0.282
4 | GCGCGACCTTGGGTTCTAACCTGTTGCTTGG [GCGCGACCTAA_LTGcore_CT_RTGcore_CC] (site GCGCGACCTAA) (LTG core: CT, RTG core: CC) | 0
5 | GCGCGACCTTGGGTTCTAACCTGTTGCTTTA [GCGCGACCTAA_LTGcore_CT_RTGcore_TA] (site GCGCGACCTAA) (LTG core: CT, RTG core: TA) | 0.265
6 | GCGCGACCTTGGGTTCTAACCTGTTGCTTTG [GCGCGACCTAA_LTGcore_CT_RTGcore_CA] (site GCGCGACCTAA) (LTG core: CT, RTG core: CA) | 0.102
7 | GCGCGACGGTGGGTTCTAACCTGTTGCTTCC [GCGCGACCTAA_LTGcore_GG_RTGcore_GG] (site GCGCGACCTAA) (LTG core: GG, RTG core: GG) | 0.315
8 | GCGCGACGTTGGGTTCTAACCTGTTGCTTAG [GCGCGACCTAA_LTGcore_GT_RTGcore_CT] (site GCGCGACCTAA) (LTG core: GT, RTG core: CT) | 0.0314
9 | GCGCGACTATGGGTTCTAACCTGTTGCTTTA [GCGCGACCTAA_LTGcore_TA_RTGcore_TA] (site GCGCGACCTAA) (LTG core: TA, RTG core: TA) | 0.118
10 | GCGCGACTCTGGGTTCTAACCTGTTGCTTGA [GCGCGACCTAA_LTGcore_TC_RTGcore_TC] (site GCGCGACCTAA) (LTG core: TC, RTG core: TC) | 0.228
11 | GCGGGACAATGGGTTCTAACCTGTTGCCTAG [GCGGGACCTAG_LTGcore_AA_RTGcore_CT] (site GCGGGACCTAG) (LTG core: AA, RTG core: CT) | 0.227
12 | GCGGGACACTGGGTTCTAACCTGTTGCCTAG [GCGGGACCTAG_LTGcore_AC_RTGcore_CT] (site GCGGGACCTAG) (LTG core: AC, RTG core: CT) | 0.121
13 | GCGGGACATTGGGTTCTAACCTGTTGCCTAT [GCGGGACCTAG_LTGcore_AT_RTGcore_AT] (site GCGGGACCTAG) (LTG core: AT, RTG core: AT) | 0.11
14 | GCGGGACCTTGGGTTCTAACCTGTTGCCTCA [GCGGGACCTAG_LTGcore_CT_RTGcore_TG] (site GCGGGACCTAG) (LTG core: CT, RTG core: TG) | 0.682
15 | GCGGGACCTTGGGTTCTAACCTGTTGCCTGG [GCGGGACCTAG_LTGcore_CT_RTGcore_CC] (site GCGGGACCTAG) (LTG core: CT, RTG core: CC) | 0.0406
16 | GCGGGACGATGGGTTCTAACCTGTTGCCTTC [GCGGGACCTAG_LTGcore_GA_RTGcore_GA] (site GCGGGACCTAG) (LTG core: GA, RTG core: GA) | 0.2
17 | GCGGGACGGTGGGTTCTAACCTGTTGCCTAG [GCGGGACCTAG_LTGcore_GG_RTGcore_CT] (site GCGGGACCTAG) (LTG core: GG, RTG core: CT) | 0.14
18 | GCGGGACGTTGGGTTCTAACCTGTTGCCTAG [GCGGGACCTAG_LTGcore_GT_RTGcore_CT] (site GCGGGACCTAG) (LTG core: GT, RTG core: CT) | 0.0984
19 | GGACACCACTGGGTTCTAACCTGTTGCCTAG [GGACACCCTAG_LTGcore_AC_RTGcore_CT] (site GGACACCCTAG) (LTG core: AC, RTG core: CT) | 0.0688
20 | GGACACCCCTGGGTTCTAACCTGTTGCCTGG [GGACACCCTAG_LTGcore_CC_RTGcore_CC] (site GGACACCCTAG) (LTG core: CC, RTG core: CC) | 0.128
21 | GGACACCCTTGGGTTCTAACCTGTTGCCTCA [GGACACCCTAG_LTGcore_CT_RTGcore_TG] (site GGACACCCTAG) (LTG core: CT, RTG core: TG) | 0.858
22 | GGACACCGATGGGTTCTAACCTGTTGCCTTC [GGACACCCTAG_LTGcore_GA_RTGcore_GA] (site GGACACCCTAG) (LTG core: GA, RTG core: GA) | 0.0178

Row | Sequence | recombinant barcode read abundance (log10)
23 | GGACACCGTTGGGTTCTAACCTGTTGCCTAG [GGACACCCTAG_LTGcore_GT_RTGcore_CT] (site GGACACCCTAG) (LTG core: GT, RTG core: CT) | 0.32
24 | GGCTCCCAGTGGGTTCTAACCTGTTGCGGCT [GGCTCCCCTCC_LTGcore_AG_RTGcore_AG] (site GGCTCCCCTCC) (LTG core: AG, RTG core: AG) | 0.206
25 | GGCTCCCCATGGGTTCTAACCTGTTGCGGTG [GGCTCCCCTCC_LTGcore_CA_RTGcore_CA] (site GGCTCCCCTCC) (LTG core: CA, RTG core: CA) | 0.1
26 | GGCTCCCCCTGGGTTCTAACCTGTTGCGGAG [GGCTCCCCTCC_LTGcore_CC_RTGcore_CT] (site GGCTCCCCTCC) (LTG core: CC, RTG core: CT) | 0
27 | GGCTCCCCTTGGGTTCTAACCTGTTGCGGCA [GGCTCCCCTCC_LTGcore_CT_RTGcore_TG] (site GGCTCCCCTCC) (LTG core: CT, RTG core: TG) | 0.426
28 | GGCTCCCCTTGGGTTCTAACCTGTTGCGGGT [GGCTCCCCTCC_LTGcore_CT_RTGcore_AC] (site GGCTCCCCTCC) (LTG core: CT, RTG core: AC) | 0.0344
29 | GGCTCCCTCTGGGTTCTAACCTGTTGCGGGA [GGCTCCCCTCC_LTGcore_TC_RTGcore_TC] (site GGCTCCCCTCC) (LTG core: TC, RTG core: TC) | 0.238
30 | GGCTCCCTGTGGGTTCTAACCTGTTGCGGAG [GGCTCCCCTCC_LTGcore_TG_RTGcore_CT] (site GGCTCCCCTCC) (LTG core: TG, RTG core: CT) | 0.046
31 | GGGAGCCACTGGGTTCTAACCTGTTGCTGAG [GGGAGCCCTCA_LTGcore_AC_RTGcore_CT] (site GGGAGCCCTCA) (LTG core: AC, RTG core: CT) | 0
32 | GGGAGCCAGTGGGTTCTAACCTGTTGCTGAG [GGGAGCCCTCA_LTGcore_AG_RTGcore_CT] (site GGGAGCCCTCA) (LTG core: AG, RTG core: CT) | 0.493
33 | GGGAGCCAGTGGGTTCTAACCTGTTGCTGCT [GGGAGCCCTCA_LTGcore_AG_RTGcore_AG] (site GGGAGCCCTCA) (LTG core: AG, RTG core: AG) | 0.523
34 | GGGAGCCCATGGGTTCTAACCTGTTGCTGTG [GGGAGCCCTCA_LTGcore_CA_RTGcore_CA] (site GGGAGCCCTCA) (LTG core: CA, RTG core: CA) | 0.536
35 | GGGAGCCCCTGGGTTCTAACCTGTTGCTGAG [GGGAGCCCTCA_LTGcore_CC_RTGcore_CT] (site GGGAGCCCTCA) (LTG core: CC, RTG core: CT) | 1.11
36 | GGGAGCCCGTGGGTTCTAACCTGTTGCTGCG [GGGAGCCCTCA_LTGcore_CG_RTGcore_CG] (site GGGAGCCCTCA) (LTG core: CG, RTG core: CG) | 0.113
37 | GGGAGCCCTTGGGTTCTAACCTGTTGCTGTC [GGGAGCCCTCA_LTGcore_CT_RTGcore_GA] (site GGGAGCCCTCA) (LTG core: CT, RTG core: GA) | 0.0409
38 | GGGAGCCGATGGGTTCTAACCTGTTGCTGAG [GGGAGCCCTCA_LTGcore_GA_RTGcore_CT] (site GGGAGCCCTCA) (LTG core: GA, RTG core: CT) | 0.0418
39 | GGGAGCCGCTGGGTTCTAACCTGTTGCTGGC [GGGAGCCCTCA_LTGcore_GC_RTGcore_GC] (site GGGAGCCCTCA) (LTG core: GC, RTG core: GC) | 0.0416
40 | GGGAGCCTATGGGTTCTAACCTGTTGCTGAG [GGGAGCCCTCA_LTGcore_TA_RTGcore_CT] (site GGGAGCCCTCA) (LTG core: TA, RTG core: CT) | 0.0839
41 | GGGAGCCTATGGGTTCTAACCTGTTGCTGTA [GGGAGCCCTCA_LTGcore_TA_RTGcore_TA] (site GGGAGCCCTCA) (LTG core: TA, RTG core: TA) | 0.157
42 | GGGCGGAACTGGGTTCTAACCTGTTGCGGAG [GGGCGGACTCC_LTGcore_AC_RTGcore_CT] (site GGGCGGACTCC) (LTG core: AC, RTG core: CT) | 0.449
43 | GGGCGGAAGTGGGTTCTAACCTGTTGCGGAG [GGGCGGACTCC_LTGcore_AG_RTGcore_CT] (site GGGCGGACTCC) (LTG core: AG, RTG core: CT) | 0.0524

Reference: the supplement of paper PMC11208160
